# Patent US20230265151A1, “GIP/GLP1 CO-AGONIST COMPOUNDS” (priority 2020, published 2023)
# Where two headings read alike, the source gives them in different places. *1 amine or outer side, *2 acyl side, *3 side chain or, on linkers, in order; H or OH if unused. Where a SMILES comes first, the peptide text is derived from it. Side-chain parts run from the residue outwards. [ ]: non-standard residue; d: D form. The star is where a group is joined. Decanoyl(10-(4-HOOC-PhO)) = O=C(O)c1ccc(OCCCCCCCCCC(=O)*)cc1; αMePhe(2-F) = C[C@](N)(Cc1ccccc1F)C(=O)O; γGlu = O=C(O)[C@H](CCC(=O)[*:2])N[*:1]; αMeY = C[C@](N)(Cc1ccc(O)cc1)C(=O)O; αMeL = CC(C)C[C@](C)(N)C(=O)O; Orn = NCCC[C@H](N)C(=O)O; AEEA = NCCOCCOCC(=O)O; Aib = CC(C)(N)C(=O)O
# Assays:
# Format in all cases: cell-based
# [1] = molecular target: T1, hGIPR (Homo sapiens, UniProt P48546); assay: Functional cAMP formation (HTRF) in HEK-293 clonal cells expressing hGIPR, 0.1% bovine casein, without or with 1.0% human serum albumin; conditions: for EC50: geometric mean
# T1 construct: expressed in transfected cells
# T1 sequence (P48546 22-466): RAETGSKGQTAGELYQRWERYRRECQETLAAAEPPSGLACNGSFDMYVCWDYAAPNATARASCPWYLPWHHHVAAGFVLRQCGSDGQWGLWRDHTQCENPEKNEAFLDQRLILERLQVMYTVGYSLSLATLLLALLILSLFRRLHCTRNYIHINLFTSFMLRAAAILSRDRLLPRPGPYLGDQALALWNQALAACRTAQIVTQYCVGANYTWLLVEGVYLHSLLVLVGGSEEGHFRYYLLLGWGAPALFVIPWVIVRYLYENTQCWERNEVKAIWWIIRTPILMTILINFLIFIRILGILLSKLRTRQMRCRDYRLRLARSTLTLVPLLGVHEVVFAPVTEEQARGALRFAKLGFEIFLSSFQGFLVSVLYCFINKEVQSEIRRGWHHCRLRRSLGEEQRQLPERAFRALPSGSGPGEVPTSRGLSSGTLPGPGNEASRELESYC
# Summary of the method: (§1)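 Cells were stimulated with peptide for 30 min at 37° C, then lysed in buffer carrying cAMP-d2 and anti-cAMP Eu3+-cryptate for a competitive HTRF read after at least 60 min at room temperature. The 665/620 nm ratio was converted to nM cAMP against a standard curve.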
# [2] = molecular target: T2, hGCGR (Homo sapiens, UniProt P47871); assay: Functional cAMP formation (HTRF) in HEK-293 clonal cells expressing hGCGR, 0.1% bovine casein, without or with 1.0% human serum albumin
# T2 construct: expressed in transfected cells
# T2 sequence (P47871 26-477): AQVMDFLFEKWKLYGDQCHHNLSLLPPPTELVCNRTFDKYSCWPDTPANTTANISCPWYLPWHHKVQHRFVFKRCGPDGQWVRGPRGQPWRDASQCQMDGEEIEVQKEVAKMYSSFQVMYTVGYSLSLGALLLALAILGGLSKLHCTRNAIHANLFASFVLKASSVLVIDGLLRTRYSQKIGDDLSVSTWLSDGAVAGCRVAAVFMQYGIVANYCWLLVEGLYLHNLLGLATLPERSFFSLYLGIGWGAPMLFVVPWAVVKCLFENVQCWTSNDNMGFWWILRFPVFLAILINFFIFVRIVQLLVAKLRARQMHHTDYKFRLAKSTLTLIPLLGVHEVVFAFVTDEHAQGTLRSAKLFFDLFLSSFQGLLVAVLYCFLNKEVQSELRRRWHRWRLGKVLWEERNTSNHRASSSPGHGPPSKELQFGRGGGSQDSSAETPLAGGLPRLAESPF
# Summary of the method: as §1
# [3] = molecular target: hGLP-1R (Homo sapiens, UniProt P43220); assay: Functional cAMP formation (HTRF) in HEK-293 clonal cells expressing hGLP-1R, 0.1% bovine casein, without or with 1.0% human serum albumin; design: expressed in transfected cells; conditions: for EC50: cAMP, 0.1% bovine casein (no human serum albumin), geometric mean
# Chain of hGLP-1R (P43220 24-463): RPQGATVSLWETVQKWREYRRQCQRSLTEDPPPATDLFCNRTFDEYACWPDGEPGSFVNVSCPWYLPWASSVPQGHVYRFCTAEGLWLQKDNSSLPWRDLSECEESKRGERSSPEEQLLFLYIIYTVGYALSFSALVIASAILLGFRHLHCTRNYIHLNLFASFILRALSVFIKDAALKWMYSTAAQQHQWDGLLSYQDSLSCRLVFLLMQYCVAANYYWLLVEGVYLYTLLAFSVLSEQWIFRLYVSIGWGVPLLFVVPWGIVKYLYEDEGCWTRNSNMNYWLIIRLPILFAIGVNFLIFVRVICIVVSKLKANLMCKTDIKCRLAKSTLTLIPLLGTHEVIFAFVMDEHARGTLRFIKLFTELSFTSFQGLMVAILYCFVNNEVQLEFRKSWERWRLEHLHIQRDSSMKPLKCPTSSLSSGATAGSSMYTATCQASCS
# Summary of the method: as §1
# [4] = HEK293, cAMP, 37° C., 0.1% bovine casein and 1.0% human serum albumin, percent of maximal response to GIP(1-42)NH2, read-out: hGIPR Emax, % ± SEM
# [5] = cAMP, 37° C., 0.1% bovine casein (no human serum albumin), read-out: hGIPR EC50, nM (SEM, n)
# [6] = cAMP, 37° C., 0.1% bovine casein (no human serum albumin), geometric mean, read-out: hGCGR EC50, nM (SEM, n)
# [7] = cAMP, 37° C., 0.1% bovine casein and 1.0% human serum albumin, geometric mean (SEM, n), read-out: hGCGR EC50, nM (SEM, n)
# [8] = HEK293, cAMP, 37° C., 0.1% bovine casein, percent of maximal response to GLP-1(7-36)NH2, arithmetic mean, read-out: hGLP-1R Emax, % ± SEM
# [9] = 37° C., read-out: hGLP-1R EC50, nM (SEM, n)
structure (smiles),measurement,setting,value
CC[C@H](C)[C@H](NC(=O)[C@H](CC(C)C)NC(=O)[C@](C)(Cc1ccc(O)cc1)NC(=O)[C@H](CCCCNC(=O)COCCOCCNC(=O)CC[C@H](NC(=O)CCCCCCCCCCCCC(=O)O)C(=O)O)NC(=O)[C@@H](NC(=O)[C@H](Cc1ccccc1)NC(=O)[C@H](CCCN)NC(=O)C(C)(C)NC(=O)[C@H](CCC(N)=O)NC(=O)[C@H](C)NC(=O)[C@H](CCC(N)=O)NC(=O)[C@H](CCCN)NC(=O)[C@H](CC(=O)O)NC(=O)[C@H](CC(C)C)NC(=O)[C@](C)(CC(C)C)NC(=O)[C@@H](NC(=O)C(C)(C)NC(=O)[C@H](Cc1ccncc1)NC(=O)[C@H](CC(=O)O)NC(=O)[C@H](CO)NC(=O)[C@@H](NC(=O)[C@](C)(Cc1ccccc1F)NC(=O)[C@@H](NC(=O)CNC(=O)[C@H](CCC(=O)O)NC(=O)C(C)(C)NC(=O)[C@@H](N)Cc1ccc(O)cc1)[C@@H](C)O)[C@@H](C)O)[C@@H](C)CC)[C@@H](C)CC)C(=O)N[C@@H](CCCCNC(=O)COCCOCCNC(=O)CC[C@H](NC(=O)CCCCCCCCCCCCC(=O)O)C(=O)O)C(=O)NCC(=O)NCC(=O)N1CCC[C@H]1C(=O)N[C@@H](CO)C(=O)N[C@@H](CO)C(=O)NCC(=O)N[C@@H](C)C(=O)N1CCC[C@H]1C(=O)N1CCC[C@H]1C(=O)N1CCC[C@H]1C(=O)N[C@@H](CO)C(N)=O [Example 459],Emax,[1]; [4],89.3%
same,EC50,[1]; [5],0.013 nM
same,EC50,[2]; [6],> 9950 nM
same,EC50,[2]; [7],> 9950 nM
same,Emax,[3]; [8],120%
same,EC50,[3]; [9],0.18 nM
CC[C@H](C)[C@H](NC(=O)[C@H](CCCN)NC(=O)[C@H](CC(=O)O)NC(=O)[C@H](CC(C)C)NC(=O)[C@](C)(CC(C)C)NC(=O)[C@@H](NC(=O)C(C)(C)NC(=O)[C@@H](NC(=O)[C@H](CC(=O)O)NC(=O)[C@H](CO)NC(=O)[C@@H](NC(=O)[C@](C)(Cc1ccccc1F)NC(=O)[C@@H](NC(=O)CNC(=O)[C@H](CCC(=O)O)NC(=O)C(C)(C)NC(=O)[C@@H](N)Cc1ccc(O)cc1)[C@@H](C)O)[C@@H](C)O)C(C)C)[C@@H](C)CC)C(=O)N[C@@H](C)C(=O)N[C@@H](CCC(N)=O)C(=O)NC(C)(C)C(=O)N[C@@H](CCCCNC(=O)COCCOCCNC(=O)COCCOCCNC(=O)CC[C@H](NC(=O)CCCCCCCCCOc1ccc(C(=O)O)cc1)C(=O)O)C(=O)N[C@@H](Cc1ccccc1)C(=O)N[C@H](C(=O)N[C@H](CCC(=O)O)C(=O)N[C@@](C)(Cc1ccc(O)cc1)C(=O)N[C@@H](CC(C)C)C(=O)N[C@H](C(=O)N[C@@H](CCC(=O)O)C(=O)NCC(=O)NCC(=O)N1CCC[C@H]1C(=O)N[C@@H](CO)C(=O)N[C@@H](CO)C(=O)NCC(=O)N[C@@H](C)C(=O)N1CCC[C@H]1C(=O)N1CCC[C@H]1C(=O)N1CCC[C@H]1C(=O)N[C@@H](CO)C(=O)N[C@@H](CCCCNC(=O)COCCOCCNC(=O)COCCOCCNC(=O)CC[C@H](NC(=O)CCCCCCCCCOc1ccc(C(=O)O)cc1)C(=O)O)C(N)=O)[C@@H](C)CC)[C@@H](C)CC [Example 383] (H-Y[Aib]EGT[αMePhe(2-F)]TSDV[Aib]I[αMeL]LD[Orn]IAQ[Aib]K([AEEA-AEEA-γGlu-Decanoyl(10-(4-HOOC-PhO))])FI[dE][αMeY]LIEGGPSSGAPPPSK([AEEA-AEEA-γGlu-Decanoyl(10-(4-HOOC-PhO))])-NH2),Emax,"[1]; HEK293, read-out: hGIPR Emax, % ± SEM, cAMP, 37° C., 0.1% bovine casein and 1.0% human serum albumin, percent of maximal response to GIP(1-42)NH2",82.8%
same,Emax,"[1]; HEK293, read-out: hGIPR Emax, % ± SEM, cAMP, 37° C., 0.1% bovine casein, percent of maximal response to GIP(1-42)NH2, arithmetic mean",100%
same,EC50,"[1]; hGIPR EC50, nM (SEM, n), cAMP, 37° C., 0.1% bovine casein (no human serum albumin)",0.0147 nM
same,EC50,"[2]; hGCGR EC50, nM (SEM, n), cAMP, 37° C., 0.1% bovine casein (no human serum albumin), geometric mean",> 9950 nM
same,EC50,"[2]; hGCGR EC50, nM (SEM, n), cAMP, 37° C., 0.1% bovine casein and 1.0% human serum albumin, geometric mean (SEM, n)",> 9950 nM
same,Emax,"[3]; HEK293, read-out: hGLP-1R Emax, % ± SEM, cAMP, 37° C., 0.1% bovine casein, percent of maximal response to GLP-1(7-36)NH2, arithmetic mean",105%
same,EC50,"[3]; hGLP-1R EC50, nM (SEM, n), 37° C.",0.306 nM
CC[C@H](C)[C@H](NC(=O)[C@H](CC(C)C)NC(=O)[C@](C)(Cc1ccc(O)cc1)NC(=O)[C@@H](CCC(=O)O)NC(=O)[C@@H](NC(=O)[C@H](Cc1ccccc1)NC(=O)[C@H](Cc1ccncc1)NC(=O)C(C)(C)NC(=O)[C@H](CCC(N)=O)NC(=O)[C@H](C)NC(=O)[C@H](CCCCNC(=O)COCCOCCNC(=O)COCCOCCNC(=O)CC[C@H](NC(=O)CCCCCCCCCCCCC(=O)O)C(=O)O)NC(=O)[C@H](CCCN)NC(=O)[C@H](CC(=O)O)NC(=O)[C@H](CC(C)C)NC(=O)[C@](C)(CC(C)C)NC(=O)[C@@H](NC(=O)[C@H](CO)NC(=O)[C@H](Cc1ccncc1)NC(=O)[C@H](CC(=O)O)NC(=O)[C@H](CO)NC(=O)[C@@H](NC(=O)[C@](C)(Cc1ccccc1F)NC(=O)[C@@H](NC(=O)CNC(=O)[C@H](CCC(=O)O)NC(=O)C(C)(C)NC(=O)[C@@H](N)Cc1ccc(O)cc1)[C@@H](C)O)[C@@H](C)O)[C@@H](C)CC)[C@@H](C)CC)C(=O)N[C@@H](CCC(=O)O)C(=O)NCC(=O)NCC(=O)N[C@@H](CCCCNC(=O)COCCOCCNC(=O)COCCOCCNC(=O)CC[C@H](NC(=O)CCCCCCCCCCCCC(=O)O)C(=O)O)C(=O)N[C@@H](CO)C(=O)N[C@@H](CO)C(=O)NCC(=O)N[C@@H](C)C(=O)N1CCC[C@H]1C(=O)N1CCC[C@H]1C(=O)N1CCC[C@H]1C(=O)N[C@@H](CO)C(N)=O [Example 157],EC50,"[1]; 0.1% bovine casein and 1.0% human serum albumin, 37° C., read-out: hGIPR EC50, nM (SEM, n)",0.718 nM
same,Emax,"[1]; HEK293, 0.1% bovine casein and 1.0% human serum albumin, 37° C., percent of maximal response to GIP(1-42)NH2, read-out: hGIPR Emax, % ± SEM",89.6 ± 3.39%
same,Emax,"[1]; HEK293, percent of maximal response to GIP(1-42)NH2, 37° C., 0.1% bovine casein, arithmetic mean, read-out: hGIPR Emax, % ± SEM",98.8 ± 1.33%
same,EC50,"[1]; cAMP, incubated at 37° C., 0.1% bovine casein (no human serum albumin), read-out: hGIPR EC50, nM (SEM, n)",0.0286 nM
same,EC50,"[2]; 0.1% bovine casein and 1.0% human serum albumin, 37° C., geometric mean, read-out: hGCGR EC50, nM (SEM, n)",> 9950 nM
same,EC50,"[2]; cAMP, incubated at 37° C., 0.1% bovine casein (no human serum albumin), geometric mean, read-out: hGCGR EC50, nM (SEM, n)",> 9950 nM
same,Emax,"[3]; HEK293, percent of maximal response to GLP-1(7-36)NH2, 37° C., 0.1% bovine casein, arithmetic mean, read-out: hGLP-1R Emax, % ± SEM",98.5 ± 4.73%
CC[C@H](C)[C@H](NC(=O)[C@H](CCCN)NC(=O)[C@H](CC(=O)O)NC(=O)[C@H](CC(C)C)NC(=O)[C@](C)(CC(C)C)NC(=O)[C@@H](NC(=O)C(C)(C)NC(=O)[C@H](Cc1ccncc1)NC(=O)[C@H](CC(=O)O)NC(=O)[C@H](CO)NC(=O)[C@@H](NC(=O)[C@](C)(Cc1ccccc1F)NC(=O)[C@@H](NC(=O)CNC(=O)[C@H](CCC(=O)O)NC(=O)C(C)(C)NC(=O)[C@@H](N)Cc1ccc(O)cc1)[C@@H](C)O)[C@@H](C)O)[C@@H](C)CC)C(=O)N[C@@H](C)C(=O)N[C@@H](CCC(N)=O)C(=O)NC(C)(C)C(=O)N[C@@H](CCC(=O)O)C(=O)N[C@@H](Cc1ccccc1)C(=O)N[C@H](C(=O)N[C@@H](CCCCNC(=O)COCCOCCNC(=O)CC[C@H](NC(=O)CCCCCCCCCCCCC(=O)O)C(=O)O)C(=O)N[C@@](C)(Cc1ccc(O)cc1)C(=O)N[C@@H](CC(C)C)C(=O)N[C@H](C(=O)N[C@@H](CCCCNC(=O)COCCOCCNC(=O)CC[C@H](NC(=O)CCCCCCCCCCCCC(=O)O)C(=O)O)C(=O)NCC(=O)NCC(=O)N1CCC[C@H]1C(=O)N[C@@H](CO)C(=O)N[C@@H](CO)C(=O)NCC(=O)N[C@@H](C)C(=O)N1CCC[C@H]1C(=O)N1CCC[C@H]1C(=O)N1CCC[C@H]1C(=O)N[C@@H](CO)C(N)=O)[C@@H](C)CC)[C@@H](C)CC [Example 339],Emax,[1]; [4],87.3%
same,EC50,[1]; [5],0.019 nM
same,EC50,[2]; [6],> 10100 nM
same,EC50,[2]; [7],> 10100 nM
same,Emax,"[3]; HEK293, cAMP, 37° C., 0.1% bovine casein and 1.0% human serum albumin, percent of maximal response to GLP-1(7-36)NH2, read-out: hGLP-1R Emax, % ± SEM",115%
same,Emax,[3]; [8],113%
same,EC50,[3]; [9],0.308 nM
